Target: T1, Protease-activated receptor 1 (PAR1) (Homo sapiens, UniProt P25116)
T1 construct: gene F2R; PAR1 purified from 293-PAR1 cell lines
T1 sequence (P25116 42-425): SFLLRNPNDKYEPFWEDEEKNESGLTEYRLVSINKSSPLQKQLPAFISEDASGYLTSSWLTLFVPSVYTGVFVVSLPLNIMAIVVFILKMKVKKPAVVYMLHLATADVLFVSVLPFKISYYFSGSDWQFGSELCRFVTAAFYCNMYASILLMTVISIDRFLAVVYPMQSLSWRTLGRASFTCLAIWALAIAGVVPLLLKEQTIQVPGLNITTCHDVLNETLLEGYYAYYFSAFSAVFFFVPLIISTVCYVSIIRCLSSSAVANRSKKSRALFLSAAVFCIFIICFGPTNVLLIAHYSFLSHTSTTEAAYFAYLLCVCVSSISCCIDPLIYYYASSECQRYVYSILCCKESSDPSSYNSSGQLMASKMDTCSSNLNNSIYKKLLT
Assay: SPR (Biacore […], PAR1 immobilized on CM5 chip)
Format: binding

Question: `C[C@H]1c2cccc(O)c2C(=O)C2=C(O)[C@]3(O)C(=O)C(C(N)=O)=C(O)[C@@H](N(C)C)[C@@H]3[C@@H](O)[C@@H]21` [Doxycycline] was tested. Which Kd did it give?
Answer: 23 µM
